The source of these data is patent publication US12404241B2 (Celgene Corporation, priority 2018, dated 2025).

The target in this assay is T1, AR (Homo sapiens, UniProt P10275).
T1 construct: endogenous in cells; host or cells: VCaP cells
T1 sequence (P10275 1-920): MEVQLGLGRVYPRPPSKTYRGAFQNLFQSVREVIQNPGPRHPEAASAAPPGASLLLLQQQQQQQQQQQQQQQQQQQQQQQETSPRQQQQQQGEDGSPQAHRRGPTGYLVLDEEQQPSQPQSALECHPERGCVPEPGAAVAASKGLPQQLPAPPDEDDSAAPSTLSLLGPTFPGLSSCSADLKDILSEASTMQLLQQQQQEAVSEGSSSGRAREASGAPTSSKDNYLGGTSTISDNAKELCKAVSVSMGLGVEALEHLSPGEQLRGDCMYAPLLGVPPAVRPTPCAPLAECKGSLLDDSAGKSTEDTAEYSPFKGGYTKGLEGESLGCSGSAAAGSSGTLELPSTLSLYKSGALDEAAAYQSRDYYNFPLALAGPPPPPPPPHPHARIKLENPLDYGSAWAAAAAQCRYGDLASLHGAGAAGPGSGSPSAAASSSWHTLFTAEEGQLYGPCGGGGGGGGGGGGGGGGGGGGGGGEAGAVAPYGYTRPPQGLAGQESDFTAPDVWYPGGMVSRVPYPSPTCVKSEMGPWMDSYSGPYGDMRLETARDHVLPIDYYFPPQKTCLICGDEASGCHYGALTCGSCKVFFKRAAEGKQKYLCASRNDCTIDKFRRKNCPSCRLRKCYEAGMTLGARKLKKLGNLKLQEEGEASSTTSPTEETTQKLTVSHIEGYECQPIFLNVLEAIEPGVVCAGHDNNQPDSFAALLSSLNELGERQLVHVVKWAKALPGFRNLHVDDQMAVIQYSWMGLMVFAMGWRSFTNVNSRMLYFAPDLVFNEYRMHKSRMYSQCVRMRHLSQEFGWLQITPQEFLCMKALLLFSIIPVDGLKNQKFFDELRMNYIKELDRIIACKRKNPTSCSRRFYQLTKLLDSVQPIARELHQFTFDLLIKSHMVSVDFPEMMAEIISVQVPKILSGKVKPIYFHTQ
Briefly: VCAP AR Degradation Assay. It counts as cell-based. The conditions noted are these: for Y (AR degradation efficiency, % of DMSO control): class symbols *; for DC50: class symbols A-C, read-out: DC50. In a few lines: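 24 h, 37 °C, VCaP (DMEM/8% FBS), 10-pt 1:3 dilutions from 5 μM final top, 0.1% DMSO ctrl. Lysis on ice/4 °C 1 h; total AR by sandwich ELISA, normalized to DMSO. 4PL fit → DC50, EC50, Y (min AR level).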

Structures can show the parent of a compound that is named as a salt. Some results are limits rather than exact numbers.

With `CCc1cc(N2C(=S)N(c3cnc(C#N)c(C(F)(F)F)c3)C(=O)C2(C)C)ccc1OCCN1CCN(CC(=O)Nc2cccc(NC3CCC(=O)NC3=O)c2)C(C)(C)C1` (stereo not shown) [Example 97, 2-(4-(2-(4-(3-(6-cyano-5-(trifluoromethyl)pyridin-3-yl)-5,5-dimethyl-4-oxo-2-thioxoimidazolidin-1-yl)-2-ethylphenoxy)ethyl)-2,2-dimethylpiperazin-1-yl)-N-(3-(2,6-dioxopiperidin-3-ylamino)phenyl)acetamide], the “Y (AR degradation efficiency, % of DMSO control)” value was “* (0<Y<=25%)” and the DC50 was < 100 nM.

`Cc1cc(OCCN2C[C@@H](C)N(CC(=O)Nc3cccc(NC4CCC(=O)NC4=O)c3)[C@@H](C)C2)c(C(C)C)cc1N1C(=S)N(c2ccc(C#N)c(C(F)(F)F)c2)C(=O)C1(C)C` (stereo partly drawn) [Example 253, 2-((2S,6R)-4-(2-(4-(3-(4-cyano-3-(trifluoromethyl)phenyl)-5,5-dimethyl-4-oxo-2-thioxoimidazolidin-1-yl)-2-isopropyl-5-methylphenoxy)ethyl)-2,6-dimethylpiperazin-1-yl)-N-(3-(2,6-dioxopiperidin-3-ylamino)phenyl)acetamide]: the “Y (AR degradation efficiency, % of DMSO control)” value is on record as “* (0<Y<=25%)” and the DC50 lay within 100 to 500 nM.

On to `CC(C)c1cc(N2C(=S)N(c3cnc(C#N)c(C(F)(F)F)c3)C(=O)C23CCC3)ccc1OCCN1C[C@@H](C)N(CC(=O)Nc2cccc(NC3CCC(=O)NC3=O)c2)[C@@H](C)C1` (stereo partly drawn) [Example 176, 2-((2S,6R)-4-(2-(4-(7-(6-cyano-5-(trifluoromethyl)pyridin-3-yl)-8-oxo-6-thioxo-5,7-diazaspiro[3.4]octan-5-yl)-2-isopropylphenoxy)ethyl)-2,6-dimethylpiperazin-1-yl)-N-(3-(2,6-dioxopiperidin-3-ylamino)phenyl)acetamide], for which the “Y (AR degradation efficiency, % of DMSO control)” value was “* (0<Y<=25%)” and the DC50 is < 100 nM.

Regarding `CCc1cc(N2C(=S)N(c3cnc(C#N)c(C(F)(F)F)c3)C(=O)C2(C)C)ccc1OCCN1CCN([C@H](C)C(=O)Nc2cccc(NC3CCC(=O)NC3=O)c2)CC1` (stereo partly drawn) [Example 119, (2R)-2-(4-(2-(4-(3-(6-cyano-5-(trifluoromethyl)pyridin-3-yl)-5,5-dimethyl-4-oxo-2-thioxoimidazolidin-1-yl)-2-ethylphenoxy)ethyl)piperazin-1-yl)-N-(3-(2,6-dioxopiperidin-3-ylamino)phenyl)propanamide], the “Y (AR degradation efficiency, % of DMSO control)” value is recorded as “* (0<Y<=25%)” and the DC50 is < 100 nM.

On to `CC(C)c1cc(N2C(=S)N(c3cnc(C#N)c(C(F)(F)F)c3)C(=O)C23CCC3)ccc1OCCN1C[C@@H](C)N(CC(=O)Nc2cc(F)cc(NC3CCC(=O)NC3=O)c2)[C@@H](C)C1` (stereo partly drawn) [Example 211, 2-((2S,6R)-4-(2-(4-(7-(6-cyano-5-(trifluoromethyl)pyridin-3-yl)-8-oxo-6-thioxo-5,7-diazaspiro[3.4]octan-5-yl)-2-isopropylphenoxy)ethyl)-2,6-dimethylpiperazin-1-yl)-N-(3-(2,6-dioxopiperidin-3-ylamino)-5-fluorophenyl)acetamide], for which the “Y (AR degradation efficiency, % of DMSO control)” value was “* (0<Y<=25%)” and the DC50 is < 100 nM.

Turning to `C[C@@H]1CN(CCOc2ccc(N3C(=S)N(c4ccc(C#N)c(Cl)c4)C(=O)C3(C)C)cc2C2CC2)C[C@H](C)N1CC(=O)Nc1cc(C#N)cc(NC2CCC(=O)NC2=O)c1` (stereo partly drawn) [Example 219, 2-((2S,6R)-4-(2-(4-(3-(3-chloro-4-cyanophenyl)-5,5-dimethyl-4-oxo-2-thioxoimidazolidin-1-yl)-2-cyclopropylphenoxy)ethyl)-2,6-dimethylpiperazin-1-yl)-N-(3-cyano-5-(2,6-dioxopiperidin-3-ylamino)phenyl)acetamide], the “Y (AR degradation efficiency, % of DMSO control)” value was “** (25%<Y<=35%)” and the DC50 is < 100 nM.

As for `CCc1cc(N2C(=S)N(c3cnc(C#N)c(C(F)(F)F)c3)C(=O)C2(C)C)ccc1OCCN1CCN(CC(=O)Nc2cc(NC3CCC(=O)NC3=O)cc(F)c2F)C(C)(C)C1` (stereo not shown) [Example 83, 2-(4-(2-(4-(3-(6-cyano-5-(trifluoromethyl)pyridin-3-yl)-5,5-dimethyl-4-oxo-2-thioxoimidazolidin-1-yl)-2-ethylphenoxy)ethyl)-2,2-dimethylpiperazin-1-yl)-N-(5-(2,6-dioxopiperidin-3-ylamino)-2,3-difluorophenyl)acetamide], the “Y (AR degradation efficiency, % of DMSO control)” value is “* (0<Y<=25%)” and the DC50 is < 100 nM.

As for `CCc1cc(N2C(=S)N(c3ccc(C#N)c(C(F)(F)F)c3)C(=O)C2(C)C)ccc1OCCN1CCN(CC(=O)Nc2cccc(N[C@@H]3CCC(=O)NC3=O)c2)CC1` [Example 28, hydrochloride], the “Y (AR degradation efficiency, % of DMSO control)” value was “* (0<Y<=25%)” and the DC50 was < 100 nM.

Turning to `CCc1cc(N2C(=S)N(c3ccc(C#N)c(C(F)(F)F)c3)C(=O)C2(C)C)ccc1OCCN1CCN(CC(=O)Nc2cc(F)cc(NC3CCC(=O)NC3=O)c2)[C@H](C)C1` (stereo partly drawn) [Example 90, 2-((R)-4-(2-(4-(3-(4-cyano-3-(trifluoromethyl)phenyl)-5,5-dimethyl-4-oxo-2-thioxoimidazolidin-1-yl)-2-ethylphenoxy)ethyl)-2-methylpiperazin-1-yl)-N-(3-(2,6-dioxopiperidin-3-ylamino)-5-fluorophenyl)acetamide], the “Y (AR degradation efficiency, % of DMSO control)” value is “* (0<Y<=25%)” and the half-maximal degradation concentration (DC50) was < 100 nM.

For `CCc1cc(N2C(=S)N(c3cnc(C#N)c(C(F)(F)F)c3)C(=O)C2(C)C)ccc1OCCN1C[C@H]2C[C@@H]1CN2CC(=O)Nc1cc(Cl)cc(NC2CCC(=O)NC2=O)c1` (stereo partly drawn) [Example 120, N-(3-chloro-5-(2,6-dioxopiperidin-3-ylamino)phenyl)-2-((1R,4R)-5-(2-(4-(3-(6-cyano-5-(trifluoromethyl)pyridin-3-yl)-5,5-dimethyl-4-oxo-2-thioxoimidazolidin-1-yl)-2-ethylphenoxy)ethyl)-2,5-diazabicyclo[2.2.1]heptan-2-yl)acetamide], the “Y (AR degradation efficiency, % of DMSO control)” value is reported as “** (25%<Y<=35%)” and the DC50 is 100 to 500 nM.

In the case of `CC1(C)C(=O)N(c2ccc(C#N)c(C(F)(F)F)c2)C(=S)N1c1ccc(OCCN2CCN(CC(=O)Nc3cc(Cl)cc(NC4CCC(=O)NC4=O)c3)CC2)c(C2CC2)c1` (stereo not shown) [Example 30, hydrochloride], the “Y (AR degradation efficiency, % of DMSO control)” value is given as “* (0<Y<=25%)” and the DC50 was < 100 nM.

In the case of `CCc1cc(N2C(=S)N(c3cnc(C#N)c(C(F)(F)F)c3)C(=O)C2(C)C)ccc1OCCN1CCN(CC(=O)Nc2cc(F)cc(NC3CCC(=O)NC3=O)c2)C(C)(C)C1` (stereo not shown) [Example 77, 2-(4-(2-(4-(3-(6-cyano-5-(trifluoromethyl)pyridin-3-yl)-5,5-dimethyl-4-oxo-2-thioxoimidazolidin-1-yl)-2-ethylphenoxy)ethyl)-2,2-dimethylpiperazin-1-yl)-N-(3-(2,6-dioxopiperidin-3-ylamino)-5-fluorophenyl)acetamide], the “Y (AR degradation efficiency, % of DMSO control)” value is reported as “* (0<Y<=25%)” and the DC50 was < 100 nM.

Turning to `CC(C)c1cc(N2C(=S)N(c3ccc(C#N)c(C(F)(F)F)c3)C(=O)C2(C)C)ccc1OCCN1C[C@@H](C)N(CC(=O)Nc2cccc(NC3CCC(=O)NC3=O)c2)C[C@H]1C` (stereo partly drawn) [Example 193, 2-((2R,5R)-4-(2-(4-(3-(4-cyano-3-(trifluoromethyl)phenyl)-5,5-dimethyl-4-oxo-2-thioxoimidazolidin-1-yl)-2-isopropylphenoxy)ethyl)-2,5-dimethylpiperazin-1-yl)-N-(3-(2,6-dioxopiperidin-3-ylamino)phenyl)acetamide], the “Y (AR degradation efficiency, % of DMSO control)” value is recorded as “** (25%<Y<=35%)” and the DC50 is 100 to 500 nM.

Regarding `C[C@@H]1CN(CCOc2ccc(N3C(=S)N(c4cnc(C#N)c(C(F)(F)F)c4)C(=O)C3(C)C)cc2C(C)(F)F)C[C@H](C)N1CC(=O)Nc1cccc(NC2CCC(=O)NC2=O)c1` (stereo partly drawn) [Example 255, 2-((2S,6R)-4-(2-(4-(3-(6-cyano-5-(trifluoromethyl)pyridin-3-yl)-5,5-dimethyl-4-oxo-2-thioxoimidazolidin-1-yl)-2-(1,1-difluoroethyl)phenoxy)ethyl)-2,6-dimethylpiperazin-1-yl)-N-(3-(2,6-dioxopiperidin-3-ylamino)phenyl)acetamide], the “Y (AR degradation efficiency, % of DMSO control)” value is given as “* (0<Y<=25%)” and the DC50 is < 100 nM.

As usually defined, the DC50 is the midpoint of the concentration-degradation curve.
